Results published in patent US10555919B2, “Melatonin in autoimmune disease” (The Brigham and Women's Hopsital, Inc., priority 2014, dated 2020).

Key:
CD4+ T cells = test: Th17 differentiation in vivo in RAG-1 deficient mice reconstituted with CD4+ T cells and immunized with MOG35-55 in CFA; settings: melatonin 5 mg/kg
From the text: Sorted splenic CD4+ T cells from C57BL/6, MTNR1A-, REV-ERBα and NFIL3-deficient mice were transferred i.p. (10×10^6 cells per mouse) into RAG-1 deficient mice. Ten days after transfer, mice were checked for reconstitution of CD4+ T cells and immunized with MOG35-55 in CFA. Twenty days after immunization, T cells were isolated and stained for cytokines.

Tr1 cells = test: In vitro mouse Tr1 cell differentiation; type: cell-based
Method: Naive CD4+ T cells (CD4+CD44loCD62LhiCD25−) were from the spleen and lymph node of C57BL/6 wild-type, MTNR1A−, NFIL3−, REV-ERBα, C/EBPα-deficient or RORα-deficient mice using magnetic beads (CD4+ T cell isolation kit, Miltenyi Biotec). All experiments were started between 7 and 9 am. Cells were activated with plate-bound anti-CD3 (2 μg/ml; 14-0031-86; eBioscience) and anti-CD28 (2 μg/ml; 16-0281-86; eBioscience). Mouse IL-27 (30 ng/ml; 34-8271; Biolegend) was added for the generation of Tr1 cells. IL-6 (30 ng/ml; 406-ML-025; R&D Systems), TGF-β1 (15 ng/ml; 130-095-067; Miltenyi Biotec), anti-IL-4 (2.5 μg/ml; C17.8; Biolegend) and anti-IFN-γ (5 μg/ml; XMG1.2; Biolegend) were added for the generation of Th17 cells. Recombinant mouse IL-23 (30 ng/ml; 1887-ML-010; R&D Systems) was added at day 2. For some experiments IL-6 and […] (10 ng/ml; 401-ML-025; R&D Systems) or TGF-β1 and IL-21 (100 ng/ml; 594-ML-010; R&D Systems) were used in instead for Th17 cell differentiation. IL-12 (30 ng/ml; 419-ML-010; R&D Systems) and anti-IL-4 (2.5 μg/ml; C17.8; Biolegend) were used for the generation of Th1 cells. IL-4 (30 ng/ml; 404-ML-010; R&D Systems) and anti-IFN-γ (5 μg/ml; XMG1.2; Biolegend) was added for the generation of Th2 cells. TGF-β1 (15 ng/ml; 130-095-067; Miltenyi Biotec) was used for the generation of Foxp3+ Tregs. Melatonin (Gador, Argentina), Agomelatin, and CGP-52608 (Sigma-Aldrich) were added at the start of the cultures and at day 2, at a final concentration of 2-20 ng/ml.

[1] = tested on: experimental autoimmune encephalitis (EAE) model of MS; test: EAE in mice immunized with MOG35-55, treated daily with melatonin or vehicle; type: in vivo, C57BL/6 wild-type mice; settings: melatonin 5 mg/kg intraperitoneally daily
Erk1/2 = test: Signal transduction profiling using reverse protein arrays; type: cell-based, mouse; settings: T cells; MTNR1A-dependent
Method: Cells activated under polarizing conditions were treated with vehicle (DMSO 0.001%), melatonin (2-10 ng/mL), agomelatine (2-10 ng/mL) and CGP-52608 (2-10 ng/mL) during 72-96 hs and lysed. Lysates were transferred to 384-well polypropylene plates and were spotted onto Super Epoxi slides (Telechem) with a robotic microarrayer (Genetix) fitted with solid spotting pins.

For `COc1ccc2[nH]cc(CCNC(C)=O)c2c1` [Melatonin, N-Acetyl-5-methoxytryptamine], which “Th17 cell differentiation in vivo” value (CD4+ T cells; mice reconstituted with MTNR1A-, REV-ERBα or NFIL3-deficient T cells) is on record?
The value was “increased”.

What about the “Th17 cell differentiation in vivo” value (CD4+ T cells; mice reconstituted with wild type CD4+ T cells) of the same molecule?
The value was “suppression”.

And the “expression of IL-10 and the Tr1-associated molecules il21, ahr and cmaf” value (Tr1 cells; Tr1 polarizing conditions, melatonin 2 ng/ml)?
The value was “boosted”.

What about the “suppressive activity of Tr1 cells in vitro” value (Tr1 cells; co-culture with CFSE-labeled CD4+ T cells, 48 hs) of the same molecule?
The value was “boosted”.

What about the EAE clinical symptoms [1] of the same molecule?
Its EAE clinical symptoms is “ameliorated”.

And the “Mean onset day (mean ± sd)” value [1]?
Its value is 11.8 ± 3.0 days.

What about the Mortality [1] of the same molecule?
Its Mortality is 0/24.

And the “Mean maximum score (mean ± sd)” value ([1]; **P < 0.05)?
Its value is 2.06 ± 0.8**.

And the “Incidence (%)” value ([1]; *P = 0.05)?
The value was 65%.

What about the “Incidence (animals)” value ([1]; *P = 0.05) of the same molecule?
The value was 17/24.

What about the “activation of Erk1/2” value (Erk1/2) of the same molecule?
The value was “increase”.
